From article PMC5619143 (Future Microbiology, 2017)

Test system: LdtMav2
Assay: nitrocefin hydrolysis, absorbance at […] nm, Michaelis-Menten fit
Assay type: biochemical, Mycobacterium avium
Settings: pH 6.5, 25 °C

Km: 75 µM
SMILES: O=C(Cc1cccs1)N[C@@H]1C(=O)N2C(C(=O)O)=C(/C=C/c3ccc([N+](=O)[O-])cc3[N+](=O)[O-])CS[C@H]12 [nitrocefin]
